# US20240075050A1, “Methods and Compositions for Treating Leucine Rich Repeat Kinase 2 (LRRK2)-Associated Disorder or Condition” (University of Connecticut, priority 2022, published 2024)
# What was measured:
# [1] = system: LRRK2-G2019S transgenic flies; assay: LRRK2-induced DA neurodegeneration in LRRK2-G2019S transgenic Drosophila; type: in vivo; conditions: 9-week-old flies, fly food with 1 mM AICAr from posteclosion
# Source text: Administration of AICAr into LRRK2 Drosophila. Ddc-GAL4 and UAS-GFP fly lines were obtained from Bloomington Stock Center. pUAST-attB-LRRK2 WT and G2019S were microinjected into Drosophila embryos (BestGene Inc.)^30. The resulting transgenic flies were crossed with Ddc-GAL4>UAS-GFP, which induces the co-expression of GFP, […] LRRK2 in dopamine and serotonin neurons. To study the effects of AICAr on LRRK2-induced dopaminergic neurodegeneration, flies were fed with regular fly food supplemented with 1 mM AICAr immediately at the posteclosion until 9-week-old.
# DCP2 = DCP2 expression levels in SH-SY5Y cells, Western blot; type: cell-based, human; conditions: 1 mM, 48 hours
# Description: (§1) FIGS. 6A-6E depict that the decapping enzyme complex DCP1/2 is involved in LRRK2 mRNA decay. FIGS. 6A and 6B depict the DCP1A and DCP2 expression levels upon AICAr treatment. SH-SY5Y cells were treated with or without 1 mM AICAr for 48 hours. DCP1A and DCP2 expression levels were analyzed by Western blot. Images were quantified by ImageJ software. Data are mean±SEM, n=3 independent experiments. **p<0.01 by Student's t tests. FIGS. 6C and 6D depict the LRRK2 expression levels upon DCP1A or DCP2 overexpression. SH-SY5Y cells were transduced with lentiviruses carrying Flag-DCP1A or Flag-DCP2 for 48 hours. LRRK2 expression levels were analyzed by Western blot. Images were quantified by ImageJ software. Data are mean±SEM, n=3 independent experiments. *p<0.05 by Student's t tests. FIG. 6E depict LRRK2 mRNA decapping by DCP1A and DCP2. Recombinant DCP1A and DCP2 proteins were purified from HEK 293T cells and incubated with [α-32P]cap-labeled LRRK2 RNA. LRRK2 mRNA decapping was analyzed by one-dimensional thin layer chromatography.
# DCP1A = DCP1A expression levels in SH-SY5Y cells, Western blot; type: cell-based, human; conditions: 1 mM, 48 hours
# Description: as §1
# [2] = system: GBA, α-Synuclein, VPS35, Parkin, PINK, and DJ-1; assay: Protein levels of other PD-associated proteins in HEK 293T cells, Western blot; type: cell-based, human; conditions: tagged proteins, 1 mM, 48 hours
# Description: (§2) FIGS. 2A-2T depicts that AICAr, the precursor of ATIC substrate, regulates LRRK2 expression levels and neuronal toxicity. FIGS. 2A and 2B depict the overexpressed LRRK2 levels in HEK 293T cells upon AICAr treatment. HEK293 cells were transfected with MYC-LRRK2 and treated with or without 1 mM AICAr for 48 hours. LRRK2 levels were analyzed by Western blot. FIGS. 2C and 2D depict the LRRK2 expression levels in SH-SY5Y cells upon AICAr treatment. Human neuroblastoma SH-SY5Y cells were treated with or without 1 mM AICAr for 48 hours. LRRK2 expression levels were analyzed by Western blot. FIGS. 2E and 2F depict the overexpressed (3-glucocerebrosidase (GCase) levels upon AICAr treatment. HEK 293T cells were transfected with V5-GCase and treated with or without 1 mM AICAr for 48 hours. GCase levels were analyzed by Western blot. FIGS. 2G-2N depict the LRRK2 expression levels in primary neurons (FIG. 2G and FIG. 2H), microglia (FIG. 2I and FIG. 2J), astrocytes (FIG. 2K and FIG. 2L) and human fibroblasts (FIG. 2M and FIG. 2N) upon AICAr treatment. Mouse primary cortical neurons, microglia, astrocytes or human fibroblasts from a health control were treated with or without 1 mM AICAr for 48 hours. LRRK2 expression levels were analyzed by Western blot. […] LRRK2 expression levels were analyzed by Western blot. […] Images were quantified by ImageJ software. […]
# LRRK2 = LRRK2 levels in human fibroblasts, Western blot; type: cell-based; conditions: 1 mM, 48 hours
# Description: as §2
smiles,measurement,setting,value
"NC(=O)c1ncn([C@@H]2O[C@H](CO)[C@@H](O)[C@H]2O)c1N [AICAr, 5-aminoimidazole-4-carboxamide riboside]",LRRK2-GS induced DA neurodegeneration (DA neuron numbers),[1],rescued
same,endogenous levels of DCP2,DCP2,significantly increased
same,endogenous levels of DCP1A,DCP1A,significantly increased
same,"levels of other PD-associated proteins (GBA, α-Synuclein, VPS35, Parkin, PINK, DJ-1)",[2],no changes
same,LRRK2 levels in fibroblasts,LRRK2,significantly decrease
